Patent US8536337B2, “Solid forms of methyl (7aS,2′S)-2-(2-chlorophenyl)-2-(2,4,5,6,7,7a-hexahydrothieno[3,2-c]-5-pyridin-2-one)acetate” (IPCA Laboratories Limited, priority 2012, dated 2013)
Where a name gives a salt, the structure may show the parent alone. Read-outs that look alike come from different tables or passages of the source.

Columns and labels:
[1] = system: ADP induced platelet aggregation; test: Measurement of platelet aggregation with ADP, ex vivo whole blood impedance aggregometry after oral dosing; type: in vivo, rat; conditions: SD rats, blood 4 h after dosing, 10 μM ADP; for % aggregation: vehicle control = 100%
Method: Measurement of Platelet Aggregation with ADP
The activity on the aggregation of plates induced by ADP or collagen was determined ex-vivo.
The products as a suspension in 5% Gum Arabica (aq.) were administered by oral route to groups of six male rats of the SD strain, weighing 250-300 g. After 4 hours of the administration, 2 ml of blood is collected into the heparinized tubes by puncture of retro-orbital sinus. 0.5 ml of the anticoagulated blood is diluted with an equal volume of isotonic saline solution and incubated at 37° C. for 10 minutes. To the incubated whole blood, 10 μM ADP is added and the change in impedance (Ω), which reflects platelet aggregation, is recorded for 8 minutes with Chronolog Whole Blood Aggregometer (Model 592, Chrono-log Corp., USA). The percentage inhibition of platelet aggregation is calculated by the following formula considering the vehicle control reading as 100%:

[2] = system: FeCl3 induced arterial thrombus formation (common carotid artery); test: FeCl3 induced Arterial Thrombosis Model; type: in vivo, rat; conditions: SD rats, 30% FeCl3 1 hour post dosing
Method: 2. Anti-Thrombotic Activity
The antithrombotic activity has also been studied in FeCl3 induced Arterial Thrombosis Model according to standard procedures reported by William A. Schumacher et al., 2007 (Journal of Pharmacology and Experimental Therapeutics, 322 (I): 369-377) and Takao Tanaka et al. 2000 (European Journal of Pharmacology, 401: 413-418).
The products were dissolved in DMSO (1 mg/ml) and diluted in PEG/Water (Ratio: DMSO:PEG:Water=5:50:45), and were administered by the per oral mute to groups of 8 male rats of the SD strain, weighing 250-300 g after overnight fast. 1 hour post dosing, rats were anesthetized with Ketamine (100 mg/kg; i.p.), Xylazine (10 mg/kg; i.p) and placed on a heating pad. After aseptic preparation of the tracheal and scapular region of the rats, a midline incision of the tracheal area was made and a blunt dissection was performed to expose the common carotid artery. Approximately 2 cm of the common carotid artery was freed from the connective tissues, jugular veins, and vagus nerve and a ˜3 mm filter paper, briefly soaked in 30% FeCl3 solution, was placed around the artery for 10 min. The artery was isolated after 15 mins of the removal of filter paper and the rat was euthanized. Thrombus developed was scraped out from the extracted artery and kept for drying for 24 hours. The wet and dry weight of thrombus was recorded and expressed as mg weight of thrombus per kg body weight. % inhibition of the thrombus formation is calculated using the formula: […]

[3] = Stability of the isolated isomer against conversion into mixture of isomers (keto-enol tautomerism); type: physicochemical; conditions: normal conditions, even in solutions
Source text: The present invention is realized by way of preferential stereoselective crystallization of one of the isomer {(7aS,2′S)-isomer} from a mixture of isomers with or without dynamic conversion of counter stereo-isomer {(7aR,2′S)-isomer} through enol form. 2-oxo-clopidogrel can exists in three isomeric forms, namely structures of formula II, Formula VI and Formula VII. […] Once the double bond in the ring flips between the tetrahydropyridine nucleus and the thiophene ring, it destroys the chiral centre at 7a position, especially during its formation, resulting in mixture of isomers. Therefore, to date, there are no reports available to exclusively isolate one of the isomer selectively. […] The compounds of the present invention are substantially free of other isomers for example, compound of Formula VI, and Formula VII, apart from isomer of Formula IIB. Substantially free herein means the levels of these compounds individually or cumulatively are less than 10%, preferably less than, 5%, more preferably less than 3%, still more preferably, less than 1.0%.

[4] = system: recurrent ischemic events / major bleeding events; conditions: cited from earlier work
[5] = cited from earlier work
[6] = system: rat; conditions: in rat; cited from earlier work
[7] = system: ADP induced platelet aggregation; conditions: cited from earlier work; for time until 50% inhibition of ADP induced platelet aggregation is reached: LTA, 5 μM ADP ex-vivo
[8] = 2.2 mg/kg p.o. (1.98 mg/kg base)
[9] = 1.3 mg/kg p.o. (1.17 mg/kg base)
[10] = patients at high risk of vascular events
[11] = combined with Aspirin therapy in patients with ACS

COC(=O)[C@H](c1ccccc1Cl)N1CCC2SC(=O)C=C2C1.Cl (stereo partly drawn) [(2'S)-2-oxoclopidogrel hydrochloride]
% inhibition [1, 8]: 48.04%
% aggregation [1, 8]: 51.96%

COC(=O)C(c1ccccc1Cl)N1CCC2SC(=O)C=C2C1 [(7aS,2'S)-2-oxoclopidogrel bisulphate, Methyl (7aS,2′S)-2-(2-chlorophenyl)-2-(2,4,5,6,7,7a-hexahydrothieno[3,2-c]-5-pyridin-2-one)acetate hydrogen sulfate]
% Inhibition of Thrombus Formation (Mean ± SEM) [2, 9]: 76 ± 3.3%
Dry weight of Thrombus (mg/kg) (Mean ± SEM) [2, 9]: 0.98 ± 0.1 mg/kg
% aggregation ([1]; 2.5 mg/kg p.o. (1.9 mg/kg base)): 14.57%
% aggregation ([1]; 3.5 mg/kg p.o. (2.7 mg/kg base)): 9.14%
inhibition at 2.5 mg/kg ([1]; Rattus norvegicus, Platelet, po, 2.5 mg/kg p.o. (1.9 mg/kg base)): 85.4%
inhibition at 3.5 mg/kg ([1]; Rattus norvegicus, Platelet, po, 3.5 mg/kg p.o. (2.7 mg/kg base)): 90.9%

COC(=O)C(c1ccccc1Cl)N1CCC2SC(=O)C=C2C1 [(7aS,2′S)-2-oxoclopidogrel, Methyl (7aS,2′S)-2-(2-chlorophenyl)-2-(2,4,5,6,7,7a-hexahydrothieno[3,2-c]-5-pyridin-2-one)acetate]
stability against conversion into mixture of isomers [3]: stable and resistant to conversion into mixture

CC(=O)Oc1ccccc1C(=O)O [Aspirin]
Absolute risk increase (ARI), major bleeding events [4, 10]: about 0.5%
absolute risk reduction (ARR), recurrent ischemic events [4, 10]: about 2%
increase in the odds of major bleeding events [4, 10]: about 60%
reduction of the risk of recurrent ischemic events [4, 10]: 22%

COC(=O)[C@H](c1ccccc1Cl)N1CCc2sccc2C1 [Clopidogrel bisulphate]
% Inhibition of Thrombus Formation (Mean ± SEM) ([2]; 4 mg/kg p.o. (3.06 mg/kg base)): 73 ± 5.3%
Dry weight of Thrombus (mg/kg) (Mean ± SEM) ([2]; 4 mg/kg p.o. (3.06 mg/kg base)): 1.10 ± 0.2 mg/kg
% aggregation ([1]; 25 mg/kg p.o. (19.15 mg/kg base)): 22.85%
inhibition at 25 mg/kg ([1]; Rattus norvegicus, Platelet, po, 25 mg/kg p.o. (19.15 mg/kg base)): 77.2%

CC(=O)Oc1cc2c(s1)CCN(C(C(=O)C1CC1)c1ccccc1F)C2 (stereo not drawn) [Prasugrel hydrochloride]
% aggregation ([1]; 2.2 mg/kg p.o. (2 mg/kg base)): 18.93%
inhibition at 2.2 mg/kg ([1]; Rattus norvegicus, Platelet, po, 2.2 mg/kg p.o. (2 mg/kg base)): 81.1%

COC(=O)[C@H](c1ccccc1Cl)N1CCc2sccc2C1 [clopidogrel, (+)-(S)-methyl2-(2-chlorophenyl)-2-(6,7-dihydrothieno[3,2-c]pyridin-5(4H)-yl)acetate]
ARR, recurrent ischemic events [4, 11]: about 2.1%
further reduction of the risk of recurrent ischemic events [4, 11]: 20%
share converted to clopidogrel acid in vivo [5]: 90%
lethal dose [6]: about 5000 mg per kg
inhibition of ADP induced platelet aggregation ([7]; 900 mg, at 5 μM ADP): 60%
inhibition of platelet aggregation ([7]; 900 mg, induced by 20 μM of ADP (ex vivo)): less than 50%
time until 50% inhibition of ADP induced platelet aggregation is reached ([7]; dose 600 mg): 2 h
time until 50% inhibition of ADP induced platelet aggregation is reached ([7]; loading dose of 300 mg): 4 to 6 h
